Assays:
AsPc-1 cells = assay: Cell proliferation assay (CCK-8); type: cell-based; conditions: 10 μM
Procedure: (§1) Cells were seeded into 96-well plates (1000 cells per well) and cultured for the indicated times. Cell viability was evaluated using a CCK-8 kit (Solarbio, Beijing, China). The value of OD450 was calculated by spectrophotometer and presented as the mean ± standard deviation (SD) from three individual experiments. […]
CellproliferationassayofAsPc-1cellstreatedwith deionizedwater(Ctrl), 10μMPRTC,10μM […]
(§2) (1 picture or pasted object on this page, not shown here)

[1] = Circular dichroism (CD) spectroscopy; type: physicochemical; conditions: 0.1 mg/mL in deionized water, room temperature
Procedure: All peptides were dissolved in the deionized water at a final concentration of 0.1 mg/mL. The CD spectra were measured by using a 1 nm bandwidth with a 1 nm step resolution from 190 to 260 nm at room temperature (Jasco spectropolarimeter, Japan). Final spectra were obtained from the average of three parallel scans after subtracting a spectrum of deionized water recorded under the same conditions. Each sample was scanned thrice and the averaged spectrum was smoothed. The helicity were calculated by CDNN 2.1 [59], [60].

[2] = molecular target: T1, endogenous CREPT protein in Panc-1 cells (Homo sapiens, UniProt Q9NQG5); assay: Western blot of endogenous CREPT (degradation); type: cell-based; conditions: different dosages (24 h) or time points (10 μM)
T1 construct: endogenous protein level of CREPT in Panc-1, AsPc-1 and MIA-PaCa-2 cells; endogenous in cells; host or cells: Panc-1, AsPc-1, MIA PaCa-2
T1 sequence (Q9NQG5 1-326): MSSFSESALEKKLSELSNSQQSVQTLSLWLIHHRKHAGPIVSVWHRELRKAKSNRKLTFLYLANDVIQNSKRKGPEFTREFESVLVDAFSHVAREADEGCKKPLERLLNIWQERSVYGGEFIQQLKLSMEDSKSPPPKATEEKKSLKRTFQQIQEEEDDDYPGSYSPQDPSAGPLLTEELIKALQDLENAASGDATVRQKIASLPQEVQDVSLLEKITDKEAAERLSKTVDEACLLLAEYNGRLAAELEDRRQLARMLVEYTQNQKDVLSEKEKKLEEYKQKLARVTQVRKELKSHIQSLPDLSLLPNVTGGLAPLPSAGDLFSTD
Procedure: (§3) For exogenous immunoprecipitation assays, HEK293T cells were plated in 60 mm dishes and then transfected with the indicated plasmids. After 24 h, cells were harvested using RIPA buffer (50 mM Tris-HCl pH 8.0, 2 mM EDTA pH 8.0, 150 mM NaCl, 1% NP-40, 0.5% sodium deoxycholate, 0.1% SDS) with mixed protease inhibitors. Cell lysates were incubated with 2 μg of the indicated antibodies and 30 μL of protein A/G-Sepharose beads at 4 °C overnight. Beads were eluted five times with lysis buffer (50 mM Tris-HCl pH 7.6, 1 mM EDTA pH 8.0, 165 mM NaCl, 0.5% NP-40), and thereafter, a western blot assay was performed to analyze the association by using the indicated antibodies. Western blot was performed as previously reported. Anti-β-actin and anti-Flag antibodies were purchased from Sigma. Anti-Myc antibody was purchased from Santa Cruz Biotechnology. Antibody against CREPT was produced in the laboratory.
(§4) To address whether PRTC could induce CREPT degradation, we examined the endogenous protein level of CREPT in Panc-1, AsPc-1 and MIA-PaCa-2 cells in the presence of different dosages of PRTC. […] Consistently, treatment with PRTC led to decreases in CREPT protein at different times (Figure 5B, S3A). […] To further visualize the degradation process, we stained the endogenous CREPT protein with an antibody against CREPT in the cells treated with FITC-labeled PRTC.
Figure 5 PRTC induces the ubiquitination and proteasome- dependent degradation of the endogenous CREPT protein. (A) Immunoblot of CREPT following 24 h incubation with different dosages of PRTC or PRTC-m in Panc-1 cells. (B) Immunoblot of CREPT exposed to 10 μM PRTC or PRTC-m for different times in Panc-1 cells. (C) Western blot analysis of CREPT following 24 h incubation with 10 μM PTRC in Panc-1 cells. MG132 is an inhibitor of proteasome activity. (D) Immunofluorescence visualization of Panc-1 cells after treatment with PRTC for 24 h. Cells were stained with anti-CREPT antibody. Scale bars, 20 μm.

[3] = molecular target: T2, ubiquitinated CREPT in Panc-1 cells (Homo sapiens, UniProt Q9NQG5); assay: Endogenous IP of CREPT with ubiquitin (Co-IP); type: cell-based; conditions: 10 μM peptide for 24 h, IP: CREPT, IB: anti-ubiquitin
T2 construct: endogenous protein level of CREPT in Panc-1, AsPc-1 and MIA-PaCa-2 cells; endogenous in cells; host or cells: Panc-1, AsPc-1, MIA PaCa-2
T2 sequence (Q9NQG5 1-326): T1 sequence (Q9NQG5 1-326)
Procedure: as §3
In addition, a Co-IP experiment was performed in Panc-1 cells treated with 10 μM PRTC, PRTC-m or PRTC-v for 24 h. […] In the absence of MG132, the level of ubiquitinated CREPT was further increased by PRTC (Figure 6C, compare lane 1 and lane 2).
Figure 6 The degradation of CREPT by PRTC is dependent on its VHL ligand. (A) Immunoblot of CREPT following 24 h incubation with different dosages of PRTC or PRTC-v in Panc-1 cells. (B) Immunoblot of CREPT exposed to 10 μM PRTC or PRTC-v for different time points in Panc-1 cells. (C) Endogenous IP experiment of CREPT with ubiquitin treated with 10 μM PTRC, PTRC-m or PTRC-v in Panc-1 cells. IP: CREPT, IB: Anti-ubiquitin.

MIA PaCa-2 cells = assay: Cell proliferation assay (CCK-8); type: cell-based; conditions: 10 μM
Procedure: as §1
PaCa-2cells treatedwith deionizedH 2O(Ctrl),10μMPRTC, PRTC-mandPRTC-v. […]
as §2

Panc-1 cells = assay: Confocal fluorescence imaging of FITC labeled peptides in cells; type: cell-based; conditions: confocal microscope, Panc-1 cells
Procedure: To examine whether PRTC could permeate into pancreatic cancer cells, we synthesized fluorescein isothiocyanate (FITC) labeled PRTC, PRTC-m, PRTC-v, PRTC-r (PRTC without RRRRK) as well as TAT (a widely used cell penetrating peptide, as a positive control).
Figure 3 Identification of the permeability of PRTC in Panc-1 cells. (A) Entry of FITC- labeled peptides into Panc-1 cells tested by flow cytometry. FITC-TAT is the positive control. Measurements were performed in triplicate. (B) Quantification of cellular uptake of Panc-1 cells treated with different concentrations of FITC-PRTC. (C) Confocal microscope images of Panc-1 cells treated with 10 μM FITC labeled peptides. Scale bars, 10 μm. (D) Confocal microscope images of Panc-1 cells treated with different dosages of FITC-PRTC. Scale bars, 10 μm.

[4] = molecular target: T1, endogenous CREPT protein in Panc-1 cells; assay: Immunofluorescence staining of CREPT in cells treated with FITC-PRTC; type: cell-based; conditions: immunofluorescence with anti-CREPT antibody
Procedure: After adherence, cells were treated with 10 μM PRTC for 24 h. The cells were then gently washed three times with warm PBS, fixed with 4% paraform and incubated with 0.25% Triton X-100 in PBST. Next, the cells were blocked in 5% BSA for 1 h at room temperature and incubated with an antibody against CREPT at 4 °C overnight. Cells were washed 3 times with PBST (0.1% Tween-20) and incubated with TRITC-labeled goat anti-mouse IgG antibody (Jackson ImmunoReseach) at a dilution rate of 1:100 at room temperature for 1 h. Coverslips were imaged by a confocal laser scanning microscope (OLYMPUS).
as §4

Substance	cell proliferation (AsPc-1 cells)	secondary structure by CD spectrum [1]	Helicity ([1]; 190 to 260 nm, average of three scans, calculated by CDNN 2.1)	degradation of endogenous CREPT protein [2]	ubiquitinated CREPT proteins [3]	cell proliferation (MIA PaCa-2 cells)	localization of FITC labeled peptides in the cells (Panc-1 cells; 10 μM FITC labeled peptides)	subcellular localization (Panc-1 cells; increasing concentration and incubation time, repeated in AsPc-1 and MIA PaCa-2 cells)	endogenous CREPT protein at 24 h [4]
KDVLSEKEKKLEEYKQKLARV-RRRRK [PRTC-v, PRTC without the VHL ligand]	failed	α-helix structure	42.2%	failed to degrade	unable to mediate the accumulation	failed	–	–	–
FITC-AHX-IYP (OH) AL-AHX-KDVLSEKEKKLEEYKQKLARV-RRRRK [FITC-PRTC, fluorescein isothiocyanate (FITC) labeled PRTC]	–	–	–	–	–	–	strong localization	localized into the nucleus	almost completely depleted

Source: paper PMC7069095, “A cell-permeable peptide-based PROTAC against the oncoprotein CREPT proficiently inhibits pancreatic cancer” (Theranostics, 2020)
